The source made the active and inactive calls.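 The calls were made as follows: active = Fitted curve of melting temperature shift crosses the 1.0 threshold at or below the sample's highest valid tested concentration; inconclusive = Flat fit with activity 30 to 70, or invalid fit; inactive = Opposite direction, flat within 30, or no crossing.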

This assay deals with Fibroblast growth factor 22 (Homo sapiens) (UniProt Q9HCT0). The experiment in a line: binders of human FGF22 protein, dose response, FGF22 synaptogenesis inhibitor project, biophysical, thermal shift, cherry-pick (AID 687022). The conditions noted are these: recombinant FGF22 thermal shift, SYPRO orange melting.
Chain of Fibroblast growth factor 22 (Homo sapiens) (Q9HCT0 whole entry, looked up): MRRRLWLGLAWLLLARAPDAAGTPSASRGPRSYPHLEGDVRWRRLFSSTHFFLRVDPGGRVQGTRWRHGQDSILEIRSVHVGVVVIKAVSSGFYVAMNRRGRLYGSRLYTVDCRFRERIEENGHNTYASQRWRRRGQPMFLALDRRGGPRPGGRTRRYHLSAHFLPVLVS
For the compound `COc1ccc2cc(CCNC(=O)c3cc4ccccc4o3)c(=O)[nH]c2c1`, the AbsAC1 (concentration giving Tm-shift threshold 1.0) was 11.3 µM. Next, `COc1ccc([N+](=O)[O-])cc1/C=N/Nc1nn[nH]n1`: 6.12 µM. Regarding `CC(C)Oc1ccc(F)cc1-c1cc(C(=O)NCc2cccs2)[nH]n1`, the AbsAC1 (concentration giving Tm-shift threshold 1.0) is 8.55 µM. For the compound `O=C(Nc1ccc(F)c(Cl)c1)C1CCCN(C2=NS(=O)(=O)c3ccccc32)C1` (centres undefined), the AbsAC1 (concentration giving Tm-shift threshold 1.0) is > 38 µM (inactive). On to `O=C(CNC(=O)c1ccc(S(=O)(=O)N2CCCC2)cc1)N/N=C/c1ccc(F)cc1`, for which the AbsAC1 (concentration giving Tm-shift threshold 1.0) was 16.5 µM. In the case of `CC(=O)c1ccc(NC(=O)Nc2cccnc2)cc1`, the AbsAC1 (concentration giving Tm-shift threshold 1.0) was 7.05 µM. Turning to `CCOC(=O)N1CCN(C(=O)CCCCCn2c(=S)[nH]c3ccsc3c2=O)CC1`, the AbsAC1 (concentration giving Tm-shift threshold 1.0) is 13.8 µM. On to `C[C@H]1CN([C@@H](C)CO)S(=O)(=O)c2ccc(-c3ccncc3)cc2O[C@H]1CN(C)C(=O)Nc1ccc(C(F)(F)F)cc1`, for which the AbsAC1 (concentration giving Tm-shift threshold 1.0) was 11.8 µM. The same measure for `Oc1ccc(-c2nnc(Nc3cccc(O)c3)c3ccccc23)cc1`: 5.28 µM; for `O=C(N/N=C/c1c[nH]c2ccccc12)c1cc2ccccc2o1`: 2.71 µM. Turning to `COc1ccc(NC(=O)CN(C)C(=O)c2cn(-c3ccccc3)nc2-c2cccnc2)cc1`, the AbsAC1 (concentration giving Tm-shift threshold 1.0) was > 38 µM (inactive).

For `O=C(NNC(=O)C1CCN(S(=O)(=O)c2ccccc2C(F)(F)F)CC1)c1ccccc1O`, the AbsAC1 (concentration giving Tm-shift threshold 1.0) was 10.4 µM.

As to `COc1ccccc1NC(=O)N[C@@H]1CC[C@H](CCn2cc(-c3ccccc3OC)nn2)O[C@@H]1CO`, the AbsAC1 (concentration giving Tm-shift threshold 1.0) is 32 µM. On to `C[C@@H]1CN([C@H](C)CO)S(=O)(=O)c2ccc(C3=CCCC3)cc2O[C@@H]1CN(C)C(=O)Nc1ccc2c(c1)OCO2`, for which the AbsAC1 (concentration giving Tm-shift threshold 1.0) was 20.2 µM. As to `Cc1ccc(-c2n[nH]c(=S)n2/N=C/c2c(C)[nH]n(-c3ccccc3)c2=O)cc1`, the AbsAC1 (concentration giving Tm-shift threshold 1.0) was 4.65 µM.

Take `O=C(C[C@H]1CC[C@@H]2[C@H](COC[C@H](O)CN2S(=O)(=O)c2cccc(Cl)c2)O1)Nc1ccccc1`: the AbsAC1 (concentration giving Tm-shift threshold 1.0) was 1.93 µM. As for `CCC(C)n1c(O)c(C(c2ccccn2)c2c(O)n(C(C)CC)c(=S)[nH]c2=O)c(=O)[nH]c1=S` (centres undefined), the AbsAC1 (concentration giving Tm-shift threshold 1.0) was 20.7 µM.

On to `CCCNC(=O)COC(=O)c1ccccc1C(=O)N(C)C1CCCCC1`, for which the AbsAC1 (concentration giving Tm-shift threshold 1.0) is 3.78 µM.

Turning to `O=C(Nc1cc(Cl)cc(Cl)c1)N[C@@H]1CC[C@@H](CCNS(=O)(=O)c2cccc(F)c2)O[C@H]1CO`, the AbsAC1 (concentration giving Tm-shift threshold 1.0) was 5.67 µM. As to `Cc1cc(C(=O)N/N=C/c2c[nH]c3ccccc23)cs1`, the AbsAC1 (concentration giving Tm-shift threshold 1.0) was 2.23 µM.

Regarding `O=[N+]([O-])c1cc(CS(=O)(=O)Oc2ccc(Cl)cc2)c(O)c([N+](=O)[O-])c1`, the AbsAC1 (concentration giving Tm-shift threshold 1.0) is > 5 µM (inactive). Turning to `CCOc1cc(C=NNC(=O)c2cccc(S(=O)(=O)N3CCCC3)c2)ccc1O`, the AbsAC1 (concentration giving Tm-shift threshold 1.0) is 6.84 µM.

As for `S=c1[nH]c2cc3ccccc3cc2[nH]1`, the AbsAC1 (concentration giving Tm-shift threshold 1.0) was 10.7 µM. As to `O=[N+]([O-])c1ccc2nc(-c3ccccc3)[nH]c2c1`, the AbsAC1 (concentration giving Tm-shift threshold 1.0) is 3.88 µM. Next, `COc1ccccc1NC(=O)Nc1cccc(NC(C)=O)c1`: 7.52 µM; `O=C(N/N=C/c1ccc(O)cc1)c1cccc(N/N=C/c2ccc(O)cc2)c1`: 5.77 µM. Turning to `O=c1c2cc([N+](=O)[O-])cc([N+](=O)[O-])c2[nH]n1-c1ccccc1`, the AbsAC1 (concentration giving Tm-shift threshold 1.0) is 4.84 µM. The same measure for `O=C(Nc1cccc(C(F)(F)F)c1)c1cccc(NS(=O)(=O)c2ccc(O)c(C(=O)O)c2)c1`: 2.6 µM; for `O=C(Nc1ccccc1)O/N=C/c1ccc(F)cc1`: 20.3 µM; for `Clc1ccc(Nc2ccc(NCc3ccccc3)nn2)cc1`: 2.73 µM. With `Cc1onc(-c2ccccc2)c1C(=O)Nc1ncc([N+](=O)[O-])s1`, the AbsAC1 (concentration giving Tm-shift threshold 1.0) is 17.1 µM. `Cc1cccc(OC(C)C(=O)Nc2ccc3c(c2)OCCO3)c1` (centres undefined): the AbsAC1 (concentration giving Tm-shift threshold 1.0) was 15.1 µM.

Consider `O=C(N/N=C/c1c[nH]c2ccccc12)c1cccc(Cl)c1`, for which the AbsAC1 (concentration giving Tm-shift threshold 1.0) was 2.15 µM. The same measure for `COc1cc(NC(=O)c2ccc3c(c2)OCCO3)ccc1NC(=O)c1cccs1`: 3.85 µM. As for `Cn1c(=O)c2c(-c3ccccc3)n(-c3cc(Cl)c([N+](=O)[O-])cc3O)cc2n(C)c1=O`, the AbsAC1 (concentration giving Tm-shift threshold 1.0) is 2.38 µM.

Consider `Cc1nc2ccc(NC(=O)c3ccc(C)c(S(=O)(=O)N4CCOCC4)c3)cc2s1`, for which the AbsAC1 (concentration giving Tm-shift threshold 1.0) was 25.9 µM. Take `O=C(Nc1ccc(C(=O)O)cc1)Nc1ccc([N+](=O)[O-])cc1`: the AbsAC1 (concentration giving Tm-shift threshold 1.0) was 5.57 µM. Next, `COc1ccc(NC(=O)N(C)C[C@@H]2Oc3ccc(NC(=O)Cc4ccccc4)cc3C(=O)N([C@H](C)CO)C[C@H]2C)cc1`: 39.8 µM; `CCCOc1ccc(NC(=O)CC2C(=O)N(C)C(=S)N2Cc2ccc3c(c2)OCO3)cc1` (centres undefined): 3.25 µM; `O=C(CNC(=O)c1cccc(Br)c1)N/N=C/c1cc(Br)cc(Br)c1O`: > 38 µM (inactive). Next, `Nc1nnc(CC(=O)N/N=C/c2cc([N+](=O)[O-])cc(Br)c2O)s1`: 4.99 µM; `O=S1(=O)N=C(N(Cc2cccs2)c2ccc(O)cc2)c2ccccc21`: 1.47 µM; `Cc1ccc(OCCCC(=O)Nc2ccc(S(=O)(=O)N3CCOCC3)cc2)cc1`: 2.45 µM.

As to `NC(=NCCc1c[nH]c2ccccc12)NS(=O)(=O)c1ccc(F)cc1`, the AbsAC1 (concentration giving Tm-shift threshold 1.0) was 6.63 µM. With `CC(=O)Nc1cccc(NC(=O)c2ccc3[nH]c(C)c(C)c3c2)c1`, the AbsAC1 (concentration giving Tm-shift threshold 1.0) was 5.11 µM.

Turning to `C[C@@H]1CN([C@@H](C)CO)S(=O)(=O)c2ccc(-c3cccc(C#N)c3)cc2O[C@@H]1CN(C)C(=O)Nc1cc(F)ccc1F`, the AbsAC1 (concentration giving Tm-shift threshold 1.0) was > 38 µM (inactive). As to `O=C(C[C@H]1CC[C@H]2[C@@H](COC[C@@H](O)CN2S(=O)(=O)c2cccc(F)c2)O1)Nc1ccc(-c2ccccc2)cc1`, the AbsAC1 (concentration giving Tm-shift threshold 1.0) was > 38 µM (inactive). The same measure for `O=C(Cc1n[nH]c(=O)[nH]c1=O)N/N=C/c1c(O)ccc2ccccc12`: 9.89 µM. With `COc1ccc(-c2csc(NC(=O)CN3C(=O)C4CCCCC4C3=O)n2)c(OC)c1` (centres undefined), the AbsAC1 (concentration giving Tm-shift threshold 1.0) is 14.7 µM. Turning to `COC(=O)C1=C(CS(=O)(=O)c2cc(OC)ccc2OC)NC(=O)NC1c1ccc(O)c(OC)c1` (centres undefined), the AbsAC1 (concentration giving Tm-shift threshold 1.0) was 3.09 µM. For `COc1ccc(S(=O)(=O)Nc2ccc(NC(C)=O)cc2)cc1Cl`, the AbsAC1 (concentration giving Tm-shift threshold 1.0) is 26.6 µM.

With `Cc1nn(-c2ccccc2)c(C)c1/C=N/NC(=O)c1cc(-c2cccs2)[nH]n1`, the AbsAC1 (concentration giving Tm-shift threshold 1.0) is 8.19 µM. As for `COc1ccc(-c2ccc([C@@H]3[C@@H](CO)N4CCCCN(C(=O)c5ccc(F)cc5)C[C@@H]34)cc2)cc1`, the AbsAC1 (concentration giving Tm-shift threshold 1.0) was 3.54 µM. `CC(=O)Nc1ccc(S(=O)(=O)Nc2nc3ccc([N+](=O)[O-])cc3s2)cc1`: the AbsAC1 (concentration giving Tm-shift threshold 1.0) is 23 µM. On to `CCN1C(=O)C(CC(=O)Nc2ccc(OC)cc2)N(CCc2ccc(OC)cc2)C1=S` (centres undefined), for which the AbsAC1 (concentration giving Tm-shift threshold 1.0) is 6.95 µM. Regarding `CSc1nc2nc(Cl)c(Cl)nc2[nH]1`, the AbsAC1 (concentration giving Tm-shift threshold 1.0) was > 38 µM (inactive). In the case of `CCCC(=O)c1ccc(OCc2cn(CC(=O)c3ccc(O)cc3)nn2)cc1`, the AbsAC1 (concentration giving Tm-shift threshold 1.0) is 8.45 µM. Regarding `O=C(NCC[C@@H]1CC[C@H](NC(=O)c2cnccn2)[C@H](CO)O1)Nc1ccc(F)cc1`, the AbsAC1 (concentration giving Tm-shift threshold 1.0) is 41 µM. On to `Cc1ccsc1C(=O)NNC(=O)c1ccc(NS(=O)(=O)c2cccs2)cc1`, for which the AbsAC1 (concentration giving Tm-shift threshold 1.0) is 11.6 µM. Consider `O=[N+]([O-])c1ccc(S(=O)(=O)Nc2nnc(C(F)(F)F)s2)cc1`, for which the AbsAC1 (concentration giving Tm-shift threshold 1.0) is 4.67 µM. Regarding `Cc1cccc(NC(=O)c2ccc(-c3ccccc3[N+](=O)[O-])o2)c1`, the AbsAC1 (concentration giving Tm-shift threshold 1.0) is > 38 µM (inactive). As to `COc1ccc(-c2ccc([C@H]3[C@H]4CN(C(=O)c5ccc6c(c5)OCO6)CCCCN4[C@H]3CO)cc2)cc1`, the AbsAC1 (concentration giving Tm-shift threshold 1.0) is 15.9 µM.

For the compound `O=C(COc1ccc([N+](=O)[O-])cc1)Nc1cccc(C(=O)Nc2ccccc2C(=O)O)c1`, the AbsAC1 (concentration giving Tm-shift threshold 1.0) is 3.74 µM.

As for `CC(C)c1c(C(=O)N/N=C/c2c[nH]c3ccccc23)nnn1-c1nonc1N`, the AbsAC1 (concentration giving Tm-shift threshold 1.0) is 1.67 µM. Take `O=C(O)c1ccc(NC(=O)c2cccc(S(=O)(=O)Nc3ccc(C(=O)O)cc3)c2)cc1`: the AbsAC1 (concentration giving Tm-shift threshold 1.0) was > 5 µM (inactive).

In the case of `O=C(N/N=C/c1ccc(Cl)cc1)c1ccc2nc[nH]c2c1`, the AbsAC1 (concentration giving Tm-shift threshold 1.0) was 2.95 µM. `O=C(N/N=C/c1c[nH]c2ccccc12)c1cccs1`: the AbsAC1 (concentration giving Tm-shift threshold 1.0) is 2.71 µM. Next, `C[C@@H]1CN([C@@H](C)CO)C(=O)c2cc(NS(=O)(=O)c3ccc(Cl)cc3)ccc2O[C@@H]1CN(C)S(=O)(=O)c1ccc(F)cc1`: 21.9 µM.

For the compound `S=C(NCCN1CCOCC1)Nc1ccc(-c2nc3ccccc3[nH]2)cc1`, the AbsAC1 (concentration giving Tm-shift threshold 1.0) was 7.5 µM.

As to `O=C(Nc1nc(=O)n(C(=O)C2CC2)s1)c1ccccc1`, the AbsAC1 (concentration giving Tm-shift threshold 1.0) was 20.7 µM. In the case of `CC1CCN(Cc2c(C(=O)N/N=C/c3ccc(OC(C)C)cc3)nnn2-c2nonc2N)CC1`, the AbsAC1 (concentration giving Tm-shift threshold 1.0) was 14 µM.

On to `O=C(N/N=C/c1ccsc1)c1c[nH]c2ccccc12`, for which the AbsAC1 (concentration giving Tm-shift threshold 1.0) was 17.9 µM. On to `C[C@@H]1CN([C@H](C)CO)S(=O)(=O)c2ccc(-c3ccncc3)cc2O[C@@H]1CN(C)C(=O)Nc1ccc(C(F)(F)F)cc1`, for which the AbsAC1 (concentration giving Tm-shift threshold 1.0) was 15.3 µM. Regarding `CS(=O)(=O)c1ccc2nc(NC(=O)c3ccc(Cl)nc3)sc2c1`, the AbsAC1 (concentration giving Tm-shift threshold 1.0) was 22.9 µM.

For the origin of these results see PubChem BioAssay AID687022 (Broad Institute, 2013).
